According to article PMC5463993, “Identification of an Efflux Transporter LmrB Regulating Stress Response and Extracellular Polysaccharide Synthesis in Streptococcus mutans” (Frontiers in Microbiology, 2017):

Biological target: T1, LmrB (Streptococcus mutans, UniProt Q8DUY5)
T1 construct: full-length (454 aa) with His-tag from pET28a, expressed in E. coli BL21 (DE3) cells; tested in whole cells
Experiment: fluorometric efflux assay in E. coli BL21 (DE3) expressing LmrB versus empty vector
Format: cell-based
Conditions: EtBr-loaded whole cells in PBS; CCCP (100 uM) as control blocker

T1 sequence (Q8DUY5 entry or part of it): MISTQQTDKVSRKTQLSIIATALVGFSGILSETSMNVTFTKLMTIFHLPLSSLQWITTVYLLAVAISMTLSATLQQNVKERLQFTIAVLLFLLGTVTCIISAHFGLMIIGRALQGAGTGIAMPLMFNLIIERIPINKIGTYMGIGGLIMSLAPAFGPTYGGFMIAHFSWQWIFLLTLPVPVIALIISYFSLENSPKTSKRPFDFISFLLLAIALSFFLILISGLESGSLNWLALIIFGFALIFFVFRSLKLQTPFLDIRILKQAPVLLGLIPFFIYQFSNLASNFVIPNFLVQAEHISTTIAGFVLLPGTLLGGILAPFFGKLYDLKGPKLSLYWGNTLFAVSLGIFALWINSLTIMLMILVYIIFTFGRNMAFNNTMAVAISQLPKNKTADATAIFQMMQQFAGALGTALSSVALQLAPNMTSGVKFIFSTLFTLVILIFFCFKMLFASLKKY

CC[n+]1c(-c2ccccc2)c2cc(N)ccc2c2ccc(N)cc21 [Ethidium bromide]
fluorometric efflux assay in E. coli BL21 (DE3) expressing LmrB versus empty vec: the efflux activity of E. coli was higher for the bacterial culture harboring cloned pET28a-lmrB
